According to ChEMBL document CHEMBL1139120, “Discovery of novel phosphorus-containing steroids as selective glucocorticoid receptor antagonist” (Bioorg Med Chem Lett, 2007):
One block for each compound: values may come before it. The source made the active and inactive calls. The calls are words filed in the database; no cut-off is given here.

Experiments:
Progesterone receptor = target: T1, Progesterone receptor (Homo sapiens, UniProt P06401); assay: Antagonist activity at progesterone receptor expressed in human T47 cells assessed as blockade of progesterone-induced alkaline phosphatase activity; type: functional, cell-based
T1 sequence (P06401 whole entry): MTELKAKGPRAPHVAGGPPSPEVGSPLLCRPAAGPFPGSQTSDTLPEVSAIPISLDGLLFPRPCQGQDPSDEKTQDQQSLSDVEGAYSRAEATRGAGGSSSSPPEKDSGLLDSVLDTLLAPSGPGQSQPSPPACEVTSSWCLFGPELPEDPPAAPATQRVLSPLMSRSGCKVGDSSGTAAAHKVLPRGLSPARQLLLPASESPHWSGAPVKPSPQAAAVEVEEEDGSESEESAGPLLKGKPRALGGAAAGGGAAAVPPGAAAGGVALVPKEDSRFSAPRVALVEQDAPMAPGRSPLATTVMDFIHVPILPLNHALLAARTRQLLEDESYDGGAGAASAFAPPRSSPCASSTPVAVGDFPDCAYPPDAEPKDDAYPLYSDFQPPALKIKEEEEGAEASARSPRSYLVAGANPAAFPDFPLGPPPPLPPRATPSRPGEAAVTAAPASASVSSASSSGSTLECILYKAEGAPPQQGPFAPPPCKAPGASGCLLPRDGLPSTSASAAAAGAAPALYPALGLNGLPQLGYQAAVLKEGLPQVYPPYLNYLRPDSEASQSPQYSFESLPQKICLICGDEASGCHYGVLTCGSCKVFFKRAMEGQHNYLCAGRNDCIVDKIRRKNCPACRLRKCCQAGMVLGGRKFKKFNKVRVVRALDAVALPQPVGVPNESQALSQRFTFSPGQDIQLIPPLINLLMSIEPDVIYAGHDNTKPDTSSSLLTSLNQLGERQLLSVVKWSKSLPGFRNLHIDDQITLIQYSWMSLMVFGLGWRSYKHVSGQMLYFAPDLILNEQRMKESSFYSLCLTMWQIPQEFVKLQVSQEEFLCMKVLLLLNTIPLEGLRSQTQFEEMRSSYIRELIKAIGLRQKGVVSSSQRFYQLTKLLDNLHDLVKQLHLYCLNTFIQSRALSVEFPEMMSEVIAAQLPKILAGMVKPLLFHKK

Glucocorticoid receptor = target: T2, Glucocorticoid receptor (Homo sapiens, UniProt P04150); assay: Antagonist activity at glucocorticoid receptor expressed in human A549 cells assessed as inhibition of corticoid-induced transcription by glucocorticoid response element-linked luciferase reporter gene assay; type: functional, cell-based
T2 sequence (P04150 whole entry): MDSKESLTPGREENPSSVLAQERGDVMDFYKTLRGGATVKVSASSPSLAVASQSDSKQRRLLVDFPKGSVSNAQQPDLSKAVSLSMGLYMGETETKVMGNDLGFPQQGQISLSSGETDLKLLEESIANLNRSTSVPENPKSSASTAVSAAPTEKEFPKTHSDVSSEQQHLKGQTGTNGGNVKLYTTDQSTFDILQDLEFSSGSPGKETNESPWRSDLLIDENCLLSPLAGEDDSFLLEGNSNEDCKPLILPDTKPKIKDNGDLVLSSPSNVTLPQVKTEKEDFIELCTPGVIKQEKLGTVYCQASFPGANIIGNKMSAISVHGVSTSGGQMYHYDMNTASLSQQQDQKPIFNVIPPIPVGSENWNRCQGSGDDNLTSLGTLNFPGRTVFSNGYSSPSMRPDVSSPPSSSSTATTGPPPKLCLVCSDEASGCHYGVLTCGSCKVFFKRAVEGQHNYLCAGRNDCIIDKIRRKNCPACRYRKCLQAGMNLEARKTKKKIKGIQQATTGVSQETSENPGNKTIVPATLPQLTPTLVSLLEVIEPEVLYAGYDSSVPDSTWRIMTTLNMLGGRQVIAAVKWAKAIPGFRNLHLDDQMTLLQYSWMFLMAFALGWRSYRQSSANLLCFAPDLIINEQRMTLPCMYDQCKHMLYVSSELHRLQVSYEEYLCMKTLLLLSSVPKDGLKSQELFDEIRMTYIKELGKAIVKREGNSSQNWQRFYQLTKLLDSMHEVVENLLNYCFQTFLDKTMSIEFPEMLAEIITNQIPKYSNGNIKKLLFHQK

[1] = Permeability across Caco-2 cells; type: ADME, cell-based; conditions: human, read-out: permeability
A549 = assay: Selectivity index, Ratio of IC50 for progesterone receptor expressed in human T47 cells to IC50 for glucocorticoid receptor expressed in human A549 cells
[2] = Half life in mouse at 10 mg/kg, po; type: ADME, organism-based; parameters: dose 10 mg/kg, route oral; conditions: in vivo
hERG (KCNH2) = hERG (KCNH2) (Homo sapiens, UniProt Q12809); assay: Inhibition of hERG at 10 uM; type: toxicity
[3] = Half life in mouse at 2 mg/kg, iv; type: ADME, organism-based; parameters: dose 2 mg/kg, route intravenous; conditions: in vivo
Mus musculus = assay: Decrease in plasma glucose level in po dosed ob/ob mouse after 15 days by OGTT; type: functional, organism-based
[4] = Metabolic stability in mouse microsomes assessed as half life; type: ADME, Microsome
[5] = Clearance in mouse at 2 mg/kg, iv; type: ADME, organism-based; parameters: dose 2 mg/kg, route intravenous; conditions: in vivo
[6] = Tmax in mouse at 2 mg/kg, iv; type: ADME, organism-based; parameters: dose 2 mg/kg, route intravenous; conditions: in vivo
[7] = Cmax in mouse at 2 mg/kg, iv; type: ADME, organism-based; parameters: dose 2 mg/kg, route intravenous; conditions: in vivo
[8] = Metabolic stability in rat microsomes assessed as half life; type: ADME, Microsome
[9] = Metabolic stability in monkey microsomes assessed as half life; type: ADME, Macaca mulatta, Microsome; conditions: rhesus monkey
[10] = Oral bioavailability in mouse at 10 mg/kg; type: ADME, organism-based; conditions: in vivo
[11] = Cmax in mouse at 10 mg/kg, po; type: ADME, organism-based; parameters: dose 10 mg/kg, route oral; conditions: in vivo
[12] = Metabolic stability in human microsomes assessed as half life; type: ADME, Microsome
[13] = Tmax in mouse at 10 mg/kg, po; type: ADME, organism-based; parameters: dose 10 mg/kg, route oral; conditions: in vivo
[14] = Metabolic stability in dog microsomes assessed as half life; type: ADME, Canis lupus familiaris, Microsome
[15] = Metabolic stability in rabbit microsomes assessed as half life; type: ADME, Oryctolagus cuniculus, Microsome

Chain of hERG (KCNH2) (Q12809 whole entry): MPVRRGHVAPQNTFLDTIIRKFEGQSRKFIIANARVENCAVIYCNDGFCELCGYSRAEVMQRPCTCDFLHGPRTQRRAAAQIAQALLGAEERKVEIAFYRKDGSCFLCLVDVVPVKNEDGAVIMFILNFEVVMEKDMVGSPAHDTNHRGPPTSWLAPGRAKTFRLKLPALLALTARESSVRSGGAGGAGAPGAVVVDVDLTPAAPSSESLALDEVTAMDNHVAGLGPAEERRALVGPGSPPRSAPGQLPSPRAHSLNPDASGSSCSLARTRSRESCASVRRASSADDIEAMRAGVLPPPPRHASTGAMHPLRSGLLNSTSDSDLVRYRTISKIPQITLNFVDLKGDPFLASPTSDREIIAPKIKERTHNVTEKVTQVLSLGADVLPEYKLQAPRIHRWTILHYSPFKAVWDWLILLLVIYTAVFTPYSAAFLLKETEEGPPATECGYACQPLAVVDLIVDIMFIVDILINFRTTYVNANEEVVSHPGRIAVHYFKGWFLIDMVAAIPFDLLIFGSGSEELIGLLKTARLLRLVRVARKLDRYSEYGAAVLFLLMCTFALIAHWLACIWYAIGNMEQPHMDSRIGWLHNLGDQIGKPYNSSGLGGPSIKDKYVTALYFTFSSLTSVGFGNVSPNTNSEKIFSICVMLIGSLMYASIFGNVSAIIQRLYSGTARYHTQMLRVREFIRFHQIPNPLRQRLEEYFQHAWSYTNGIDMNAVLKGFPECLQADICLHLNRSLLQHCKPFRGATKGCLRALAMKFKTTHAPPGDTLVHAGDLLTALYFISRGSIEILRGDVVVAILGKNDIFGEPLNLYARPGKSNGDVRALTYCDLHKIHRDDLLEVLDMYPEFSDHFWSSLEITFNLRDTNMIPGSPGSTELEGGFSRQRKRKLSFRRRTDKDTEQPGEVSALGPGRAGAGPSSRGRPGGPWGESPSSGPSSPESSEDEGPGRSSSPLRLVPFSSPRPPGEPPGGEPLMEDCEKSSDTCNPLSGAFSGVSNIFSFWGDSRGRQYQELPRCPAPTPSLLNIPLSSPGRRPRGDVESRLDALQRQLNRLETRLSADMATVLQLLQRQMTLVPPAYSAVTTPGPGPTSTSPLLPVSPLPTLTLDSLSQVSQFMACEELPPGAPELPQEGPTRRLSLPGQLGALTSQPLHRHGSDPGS

half-life [2]: 132 min
half-life [3]: 46.2 min
IC50 (Progesterone receptor): 0.763 µM
half-life [4]: 28 min
clearance [5]: 0.479 L/h/kg
Tmax [6]: 4.8 min
Cmax [7]: 5.29 µg/mL
Ki (Glucocorticoid receptor): 0.01 µM
half-life [8]: > 30 min
half-life [9]: 8 min
bioavailability [10]: 59%
Cmax [11]: 1.85 µg/mL
Papp [1]: 26 nm/s
half-life [12]: > 30 min
Tmax [13]: 120 min
half-life [14]: 21 min
half-life [15]: 30 min
Structure (SMILES): C=CC[C@]1(O)CC[C@H]2[C@@H]3CCC4=CC(=O)CCC4=C3[C@@H](c3ccc(P(=O)(c4ccccc4)c4ccccc4)cc3)C[C@@]21C
inhibition at 10 µM (hERG (KCNH2)): 27.8%
Activity (Mus musculus): Active
Ratio (A549): 76.3

IC50 (Progesterone receptor): 0.275 µM
Ki (Glucocorticoid receptor): 0.02 µM
Structure (SMILES): C[C@]12C[C@H](c3ccc(P(=O)(c4ccccc4)c4ccccc4)cc3)C3=C4CCC(=O)C=C4CC[C@H]3[C@@H]1CC[C@@]2(O)c1ccccc1
Ratio (A549): 13.8

IC50 (Progesterone receptor): 0.101 µM
IC50 (Glucocorticoid receptor): 0.01 µM
Structure (SMILES): CC#C[C@]1(O)CC[C@H]2[C@@H]3CCC4=CC(=O)CCC4=C3[C@@H](c3ccc(P(C)(C)=O)cc3)C[C@@]21C
Ratio (A549): 10.1

IC50 (Progesterone receptor): > 1 µM
Ki (Glucocorticoid receptor): > 3 µM
Structure (SMILES): C=C1CCO[C@]12CC[C@H]1[C@@H]3CCC4=CC(=O)CCC4=C3[C@@H](c3ccc(P(C)(=O)O)cc3)C[C@@]12C

Further lines, the compound ahead of its results:

Structure (SMILES): C=CC[C@]1(O)CC[C@H]2[C@@H]3CCC4=CC(=O)CCC4=C3[C@@H](c3ccc(P(=O)(OCC)OCC)cc3)C[C@@]21C
IC50 (Progesterone receptor): 0.308 µM
Ki (Glucocorticoid receptor): 0.01 µM
Papp [1]: 145 nm/s
Ratio (A549): 30.8

Structure (SMILES): C=C1CCO[C@]12CC[C@H]1[C@@H]3CCC4=CC(=O)CCC4=C3[C@@H](c3ccc(P(=O)(O)OCC)cc3)C[C@@]12C
IC50 (Progesterone receptor): > 1 µM
Ki (Glucocorticoid receptor): > 3 µM

Structure (SMILES): CC#C[C@]1(O)CC[C@H]2[C@@H]3CCC4=CC(=O)CCC4=C3[C@@H](c3ccc(P(=O)(c4ccccc4)c4ccccc4)cc3)C[C@@]21C
IC50 (Progesterone receptor): 0.381 µM
Ki (Glucocorticoid receptor): 0.003 µM
Ratio (A549): 127

Structure (SMILES): CC#C[C@]1(O)CC[C@H]2[C@@H]3CCC4=CC(=O)CCC4=C3[C@@H](c3ccc(P(=O)(OCC)OCC)cc3)C[C@@]21C
IC50 (Progesterone receptor): 0.141 µM
Ki (Glucocorticoid receptor): 0.009 µM
Ratio (A549): 15.7

Structure (SMILES): CC#C[C@]1(O)CC[C@H]2[C@@H]3CCC4=CC(=O)CCC4=C3[C@@H](c3ccc(N(C)C)cc3)C[C@@]21C [MIFEPRISTONE]
half-life [2]: 168 min
half-life [3]: 240 min
Activity (Mus musculus): Active
clearance [5]: 6.9 L/h/kg
Tmax [6]: 4.8 min
Cmax [7]: 2.8 µg/mL
bioavailability [10]: 31%
Cmax [11]: 0.03 µg/mL
Tmax [13]: 60 min

Structure (SMILES): C=C1CCO[C@]12CC[C@H]1[C@@H]3CCC4=CC(=O)CCC4=C3[C@@H](c3ccc(P(C)(=O)OCC)cc3)C[C@@]12C (stereo not given in full)
IC50 (Progesterone receptor): 0.0016 µM
Ki (Glucocorticoid receptor): 0.0598 µM
Ratio (A549): 0.027

Structure (SMILES): C=C1CCO[C@]12CC[C@H]1[C@@H]3CCC4=CC(=O)CCC4=C3[C@@H](c3ccc(P(=O)(OCC)OCC)cc3)C[C@@]12C
IC50 (Progesterone receptor): 0.0099 µM
Ki (Glucocorticoid receptor): 0.0563 µM
Ratio (A549): 0.17
